Test results taken from patent US20240293364A1, “BIOMARKERS FOR CANCER THERAPY USING MDM2 ANTAGONISTS” (OTSUKA PHARMACEUTICAL CO., LTD., priority 2021, published 2024).

How the values were obtained:
Assay type in all cases: cell-based
[1] = tested on: patient-derived organoids (PDOs); assay: Proliferation assays on patient-derived organoids (PDOs), BRCA1/BRCA2/ATM status
Description: (§1) Organoids were retrieved from the CrownBIO organoid bank and expanded before getting enough quantity according to standard operation procedure. One day before organoids seeding, the needed number of organoids were passaged 1:1 using 50% Matrigel and 50% corresponding culture medium. On Day 0 organoids were seeded and compound added: organoids were collected by adding 20 μl 100× Dispase solution to each well from a 6-well plate, and incubating at 37C for 30 min. After incubation, organoids were collected from all wells and pipetted through a pre-wet 100 μm filter into a 50 ml plastic tube, then filtered the flow through over a pre-wet 20 μm filter, inverted the 20 μm filter and recovered the organoids in a new 50 ml tube, Collect organoids were then resuspended in the corresponding culture media, and counted. Organoids cell suspensions were added to 384-well plate by Multidrop dispenser. 2-4 hours after organoids seeding, compounds were added by Tecan D300e, then plates were placed back into incubator for 5 days' incubation. On day 5, proliferation was assayed by CellTiter-Glo assay. […] The plate was then read (for luminescence) in an Envision plate reader.

[2] = tested on: ATM mutant cell lines (HCC1500, LNCap, HT-144, HepG2); assay: Proliferation assays on cancer cell lines (CellTiter-Glo), ATM mutant cell lines; details: four ATMmut cell lines: HCC1500 breast, LNCap prostate, HT-144 melanoma, HepG2 liver (FIG. 2C)
Description: (§2) Cancer cells were cultured in appropriate medium. […] Each cell line was tested in triplicates.

[3] = tested on: MSI-H colorectal cancer PDOs; assay: Proliferation assays on patient-derived organoids (PDOs), MSI-H colorectal cancer; details: 6 MSI-H colorectal cancer PDOs (FIG. 4C)
Description: as §1

MSI-H cell lines = assay: Proliferation assays on cancer cell lines (CellTiter-Glo), MSI-H cell lines; details: eight MSI-H cell lines from different indications (FIG. 4B)
Description: as §2

CC[C@@](O)(c1cc(F)c2c(c1)C(=O)N([C@H](c1ccc(Cl)cc1)[C@H](C)C(=O)O)[C@@]2(OC)c1ccc(Cl)cc1)C1CCOCC1 [Example 124, (2S,3S)-3-(4-chlorophenyl)-3-[(1R)-1-(4-chlorophenyl)-7-fluoro-5-[(1S)-1-hydroxy-1-(oxan-4-yl)propyl]-1-methoxy-3-oxo-2,3-dihydro-1H-isoindol-2-yl]-2-methylpropanoic acid]
sensitivity as measured by reduction in cell proliferation ([1]; 4 PDOs with alterations in either ATM, BRCA1 and/or BRCA2 (FIG. 2F-G)): showed sensitivity | sensitivity as measured by reduction in cell proliferation ([1]; 4 additional PDOs with no alterations in ATM, BRCA1 and/or BRCA2): resistant | sensitivity as measured by reduction in cell proliferation [2]: showed sensitivity | sensitivity as measured by reduction in cell proliferation [3]: showed sensitivity | sensitivity as measured by reduction in cell proliferation (MSI-H cell lines): showed sensitivity
